Assay [1] concerns the target T1, human Cot catalytic domain (30-397 amino acids) (Homo sapiens, UniProt P41279).
T1 construct: Purified recombinant human Cot catalytic domain (30-397 amino acids) was purchased from Cama Biosciences; purchased Cama Biosciences (so in the source)
As to the kind of experiment: High Throughput Cot Biochemical Assay (KinEASE TR-FRET). The settings on record: Cot biochemical HTRF (KinEASE TR-FRET) assay; read-out: IC50 HTRF. The procedure, abridged: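 TR-FRET (KinEASE) read-out: Eu-labelled phospho-specific antibody binds XL665-tagged STK3 peptide (1 μM) phosphorylated by 5 nM human Cot kinase domain (residues 30-397). Reaction at 400 μM ATP, pH 7.0 MOPS buffer with 10 mM MgOAc, 1 mM DTT and 0.1% DMSO.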

In assay [2] the test system is TNFα production in LPS-stimulated human monocytes. As to the kind of experiment: Cot Monocyte TNFα Cell Based Assay. Conditions: Homo sapiens, Monocyte, TNFα in LPS-stimulated human monocytes; read-out: EC50 TNF. The procedure, abridged:
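TNFα release quantified by two-antibody TR-FRET, normalised to unstimulated (0%) and LPS-stimulated (100%) wells. Cells got a 1 h compound exposure at 37° C in 0.5% DMSO before 4 h challenge with 50 pg/ml LPS, at 5,000 cells/well.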

T1 sequence (P41279 30-397): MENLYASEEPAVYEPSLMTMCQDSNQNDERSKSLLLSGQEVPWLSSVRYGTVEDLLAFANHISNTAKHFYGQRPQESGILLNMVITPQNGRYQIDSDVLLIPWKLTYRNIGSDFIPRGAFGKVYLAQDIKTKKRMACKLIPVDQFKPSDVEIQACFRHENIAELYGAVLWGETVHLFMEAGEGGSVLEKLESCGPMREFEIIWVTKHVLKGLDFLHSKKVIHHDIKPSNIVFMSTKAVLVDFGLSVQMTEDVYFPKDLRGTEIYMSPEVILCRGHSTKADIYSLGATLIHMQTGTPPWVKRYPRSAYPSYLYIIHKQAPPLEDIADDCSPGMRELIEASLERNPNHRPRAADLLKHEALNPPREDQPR

`CC(C)(C)N1CCC(n2cc([C@@H](Nc3cc(Cl)c4ncc(C#N)c(Nc5ccc(F)c(Cl)c5)c4c3)c3cccc(-c4nccs4)c3)nn2)CC1` [Example 632, (S)-6-(((1-(1-(tert-butyl)piperidin-4-yl)-1H-1,2,3-triazol-4-yl)(3-(thiazol-2-yl)phenyl)methyl)amino)-8-chloro-4-((3-chloro-4-fluorophenyl)amino)quinoline-3-carbonitrile]: the IC50 in assay [1] stood at 3 nM. Further, the concentration giving a half-maximal response (EC50) in assay [2] was determined as 163 nM.

For the molecule `C[C@@H](Nc1c(C#N)cnc2c(Cl)cc(N[C@@H](c3ccccc3)c3cn(C4CCN(C(C)(C)C)CC4)nn3)cc12)c1cccc(F)c1` [Example 633, 6-(((S)-(1-(1-(tert-butyl)piperidin-4-yl)-1H-1,2,3-triazol-4-yl)(phenyl)methyl)amino)-8-chloro-4-(((R)-1-(3-fluorophenyl)ethyl)amino) quinoline-3-carbonitrile], the IC50 in assay [1] is 10 nM. Further, in assay [2], the EC50 turned out to be 1580 nM.

As to `C[C@@H](Nc1c(C#N)cnc2c(Cl)cc(N[C@@H](c3ccccc3)c3cn(C4CCN(C(C)(C)C)CC4)nn3)cc12)c1ccc(F)cc1` [Example 634, 6-(((S)-(1-(1-(tert-butyl)piperidin-4-yl)-1H-1,2,3-triazol-4-yl)(phenyl)methyl)amino)-8-chloro-4-(((R)-1-(4-fluorophenyl)ethyl)amino) quinoline-3-carbonitrile], the IC50 in assay [1] stood at 30 nM. Also, the EC50 in assay [2] worked out at 3090 nM.

Turning to `CC(C)(C)N1CCC(n2cc([C@@H](Nc3cc(Cl)c4ncc(C#N)c(NC5C6CC7CC(C6)CC5C7)c4c3)c3ccccc3)nn2)CC1` (stereo partly drawn) [Example 635, 4-(((1S,3S,5S,7S)-adamantan-2-yl)amino)-6-(((S)-(1-(1-(tert-butyl)piperidin-4-yl)-1H-1,2,3-triazol-4-yl)(phenyl)methyl)amino)-8-chloroquinoline-3-carbonitrile], the IC50 in assay [1] came to 13 nM. Also, the EC50 in assay [2] is 1080 nM.

As for `CC(C)(C)N1CCC(n2cc([C@@H](Nc3cc(Cl)c4ncc(C#N)c(NC56CCC7CC(CC(C7)C5)C6)c4c3)c3ccccc3)nn2)CC1` [Example 636, 6-(((S)-(1-(1-(tert-butyl)piperidin-4-yl)-1H-1,2,3-triazol-4-yl)(phenyl)methyl)amino)-8-chloro-4-(((1R,3r,6S,8S)-tricyclo[4.3.1.13,8]undecan-3-yl)amino)quinoline-3-carbonitrile], the IC50 in assay [1] was 143 nM. Further, the EC50 in assay [2] was 2390 nM.

`CC(C)(C)N1CCC(n2cc([C@@H](Nc3cc(Cl)c4ncc(C#N)c(NC56CC7CC(CC(C7)C5)C6)c4c3)c3ccccc3)nn2)CC1` [Example 637, 4-(((3R,5R,7R)-adamantan-1-yl)amino)-6-(((S)-(1-(1-(tert-butyl)piperidin-4-yl)-1H-1,2,3-triazol-4-yl)(phenyl)methyl)amino)-8-chloroquinoline-3-carbonitrile]: the IC50 in assay [1] was found to be 36 nM. The concentration giving a half-maximal response (EC50) in assay [2] came to 1280 nM.

`N#Cc1cnc2c(Cl)cc(N[C@@H](c3ccc(Cl)cc3)c3c[nH]nn3)cc2c1Nc1ccc2c(cnn2Cc2ccccc2)c1` [Example 638, (S)-4-((1-benzyl-1H-indazol-5-yl)amino)-8-chloro-6-(((4-chlorophenyl)(1H-1,2,3-triazol-4-yl)methyl)amino)quinoline-3-carbonitrile]: in assay [1], the half-maximal inhibitory concentration (IC50) was over 10000 nM. Also, the EC50 in assay [2] was 2650 nM.

With `N#Cc1cnc2c(Cl)cc(N[C@@H](c3ccc(Cl)cc3)c3c[nH]nn3)cc2c1Nc1cc(Cl)ccc1F` [Example 639, (S)-8-chloro-4-((5-chloro-2-fluorophenyl)amino)-6-(((4-chlorophenyl)(1H-1,2,3-triazol-4-yl)methyl)amino)quinoline-3-carbonitrile], in assay [1], the 50% inhibitory concentration (IC50) was 664 nM. Also, the half-maximal effective concentration (EC50) in assay [2] amounted to 1710 nM.

With `N#Cc1cnc2c(Cl)cc(N[C@@H](c3ccc(Cl)cc3)c3c[nH]nn3)cc2c1Nc1c(F)cccc1F` [Example 640, (S)-8-chloro-6-(((4-chlorophenyl)(1H-1,2,3-triazol-4-yl)methyl)amino)-4-((2,6-difluorophenyl)amino)quinoline-3-carbonitrile], in assay [1], the IC50 came out at 2340 nM. In assay [2], the EC50 came out at 2840 nM.

Consider `N#Cc1cnc2c(Cl)cc(NC(c3ccccc3)c3cn(C4CCNCC4)cn3)cc2c1Nc1ccc(F)c(Cl)c1` (stereo not drawn) [Example 642, 8-chloro-4-((3-chloro-4-fluorophenyl)amino)-6-((phenyl (1-(piperidin-4-yl)-1H-imidazo-4-yl)methyl)amino)quinoline-3-carbonitrile], for which the IC50 in assay [1] is 17 nM. Further, the EC50 in assay [2] came to 383 nM.

As to `CC(C)(C)N1CCC(n2cc([C@@H](Nc3cc(Cl)c4ncc(C#N)c(Nc5ccc(F)c(Cl)c5)c4c3)c3cccc(I)c3)nn2)CC1` [Example 643], the IC50 in assay [1] amounted to 7 nM. Further, the EC50 in assay [2] came to 151 nM.

As to `N#Cc1cnc2c(Cl)cc(N[C@@H](c3ccccc3)c3c[nH]nn3)cc2c1Nc1ccc(Cl)c(Cl)c1F` [Example 644, (S)-8-chloro-4-((3,4-dichloro-2-fluorophenyl)amino)-6-((phenyl(1H-1,2,3-triazol-4-yl)methyl)amino)quinoline-3-carbonitrile], the IC50 in assay [1] was 132 nM. In addition, the EC50 in assay [2] is 1100 nM.

For the molecule `CC(C)(C)N1CCC(n2cc([C@@H](Nc3cc(Cl)c4ncc(C#N)c(Nc5ccc(F)c(Cl)c5)c4c3)c3cccc(C(=O)N4CC(F)(F)C4)c3)nn2)CC1` [Example 645, (S)-6-(((1-(1-(tert-butyl)piperidin-4-yl)-1H-1,2,3-triazol-4-yl)(3-(3,3-difluoroazetidine-1-carbonyl)phenyl)methyl)amino)-8-chloro-4-((3-chloro-4-fluorophenyl)amino)quinoline-3-carbonitrile], the IC50 in assay [1] stood at 2 nM. Moreover, the EC50 in assay [2] worked out at 41 nM.

In the case of `CC(C)(C)N1CCC(n2cc([C@@H](Nc3cc(Cl)c4ncc(C#N)c(Nc5ccc(F)c(Cl)c5)c4c3)c3cccc(C(=O)N4CC(F)C4)c3)nn2)CC1` [Example 646, (S)-6-(((1-(1-(tert-butyl)piperidin-4-yl)-1H-1,2,3-triazol-4-yl)(3-(3-fluoroazetidine-1-carbonyl)phenyl)methyl)amino)-8-chloro-4-((3-chloro-4-fluorophenyl)amino)quinoline-3-carbonitrile], the half-maximal inhibitory concentration (IC50) in assay [1] was 1 nM. The half-maximal effective concentration (EC50) in assay [2] stood at 49 nM.

As for `N#Cc1cnc2c(Cl)cc(N[C@@H](c3ccc(Cl)cc3)c3c[nH]nn3)cc2c1Nc1cc(F)c(F)cc1F` [Example 647, (S)-8-chloro-6-(((4-chlorophenyl)(1H-1,2,3-triazol-4-yl)methyl)amino)-4-((2,4,5-trifluorophenyl)amino)quinoline-3-carbonitrile], the IC50 in assay [1] is 377 nM. The half-maximal effective concentration (EC50) in assay [2] was 3240 nM.

For the molecule `N#Cc1cnc2c(Cl)cc(N[C@@H](c3ccc(Cl)cc3)c3c[nH]nn3)cc2c1Nc1ccc(OCc2ccccc2)c(Cl)c1` [Example 648, (S)-4-((4-(benzyloxy)-3-chlorophenyl)amino)-8-chloro-6-(((4-chlorophenyl)(1H-1,2,3-triazol-4-yl)methyl)amino)quinoline-3-carbonitrile], in assay [1], the half-inhibitory concentration (IC50) is over 10000 nM. The concentration giving a half-maximal response (EC50) in assay [2] was 4430 nM.

As for `CCOc1ccc(Nc2c(C#N)cnc3c(Cl)cc(N[C@@H](c4ccc(Cl)cc4)c4c[nH]nn4)cc23)cc1Cl` [Example 649, (S)-8-chloro-4-((3-chloro-4-ethoxyphenyl)amino)-6-(((4-chlorophenyl)(1H-1,2,3-triazol-4-yl)methyl)amino)quinoline-3-carbonitrile], in assay [1], the IC50 was determined as 1460 nM. Besides, the EC50 in assay [2] was determined as 2740 nM.

Take `CC(C)(C)N1CCC(n2cc([C@@H](Nc3cc(Cl)c4ncc(C#N)c(Nc5ccc(F)c(F)c5F)c4c3)c3ccc(Cl)cc3)nn2)CC1` [Example 650, (S)-6-(((1-(1-(tert-butyl)piperidin-4-yl)-1H-1,2,3-triazol-4-yl)(4-chlorophenyl)methyl)amino)-8-chloro-4-((2,3,4-trifluorophenyl)amino)quinoline-3-carbonitrile]: in assay [1], the concentration for half-maximal inhibition (IC50) was found to be 32 nM. The 50% effective concentration (EC50) in assay [2] was 661 nM.

`CC(C)(C)N1CCC(n2cc([C@@H](Nc3cc(Cl)c4ncc(C#N)c(Nc5cc(F)c(F)cc5F)c4c3)c3ccc(Cl)cc3)nn2)CC1` [Example 651, (S)-6-(((1-(1-(tert-butyl)piperidin-4-yl)-1H-1,2,3-triazol-4-yl)(4-chlorophenyl)methyl)amino)-8-chloro-4-((2,4,5-trifluorophenyl)amino)quinoline-3-carbonitrile]: the IC50 in assay [1] worked out at 52 nM. Further, in assay [2], the EC50 was determined as 10600 nM.

As to `CC(C)(C)N1CCC(n2cc([C@@H](Nc3cc(Cl)c4ncc(C#N)c(Nc5cc(Cl)ccc5F)c4c3)c3ccc(Cl)cc3)nn2)CC1` [Example 652, (S)-6-(((1-(1-(tert-butyl)piperidin-4-yl)-1H-1,2,3-triazol-4-yl)(4-chlorophenyl)methyl)amino)-8-chloro-4-((5-chloro-2-fluorophenyl)amino)quinoline-3-carbonitrile], in assay [1], the half-inhibitory concentration (IC50) was found to be 61 nM. In assay [2], the EC50 turned out to be 7660 nM.

Take `CC(C)(C)N1CCC(n2cc([C@@H](Nc3cc(Cl)c4ncc(C#N)c(Nc5c(F)cccc5F)c4c3)c3ccc(Cl)cc3)nn2)CC1` [Example 653, (S)-6-(((1-(1-(tert-butyl)piperidin-4-yl)-1H-1,2,3-triazol-4-yl)(4-chlorophenyl)methyl)amino)-8-chloro-4-((2,6-difluorophenyl)amino)quinoline-3-carbonitrile]: the IC50 in assay [1] is 160 nM. For the same molecule, the EC50 in assay [2] came to 9280 nM.
